Source: patent US6521790B2, “Alkynyl amides and their therapeutic applications” (Abbott Laboratories, priority 2000, dated 2003)

Key:
[1] = reported in literature (Abbott, Tang, Palaty 1997); cited from earlier work
[2] = one study, compared with valproic acid; cited from earlier work
[3] = tested on: electrical shock induced seizures; experiment: Maximum Electrical Shock Method (MES); type: in vivo; details: oral, male CD1 mice
Text: Male CD1 mice (Charles River) weighing from 25-35 g were used. Mice were pretreated orally with compounds of the present invention prior to electrical stimulation. Mice were challenge by pulsed electrical stimulation (50 mA, 0.4 s duration, pulse width 0.5 ms, 60 pulses/sec) via corneal electrodes to induce seizure. The stimulation was delivered with an ECT Unit (Ugo Basile #7801). The electrodes of the unit were coated with electrocardiogram electrolyte (Signa Creme, Parker Labs #1708) to ensure good contact with the corneas. Mice were observed post-stimulation for the onset of seizures and death. […] Animals which gave a positive seizure response were observed an additional 30 seconds for death. […] The percent protection from seizures was calculated by dividing the number of protected mice by the total number of mice for the group. The percentage of mice protected from electrical shock induced seizures at doses of 600, 1200, 1800 and 2400 μmole/kg is illustrated in Table 3 for Example 1 and Example 6. The corresponding acid, (2R)-2-propyl-4-hexynoic acid, was also tested for comparison.

[4] = tested on: pentylenetetrazole (PTZ) induced seizures; experiment: Latency to and protection against PTZ induced seizures in mice; type: in vivo; details: compound 1400 μmol/kg intra-peritoneally; for Time to Seizure: average time for PTZ induced seizure, male CD1 mice, PTZ 85 mg/kg s.c., observed 15 minutes; for Number of Mice Protected: number of mice out of ten that did not seize within 15 minutes after PTZ 85 mg/kg s.c.
Method: Male CD1 mice (Charles River, Portage, Mich.) weighing 25-35 g were used and during the experiment the mice were housed individually in clear polycarbonate cages for observation. For each experiment, ten mice were each pretreated intra-peritoneally with a compound of the present invention (1400 μmol/kg) prior to pentylenetetrazole (PTZ) (Sigma, St. Louis, Mo.) injection. Seizures were induced by the subcutaneous injection of PTZ (85 mg/kg) just below the nape of the neck. […] The data in Table 1 represents the average time for PTZ induced seizure. […] Control animals were not pretreated with a compound of the present invention but were injected with PTZ (85 mg/kg) subcutaneously.

SMILES: CCCC(F)(CCC)C(=O)O [2-fluoro-2-propylpentanoic acid]
- Anticonvulsant potency relative to VPA [1]: less potent than VPA

SMILES: CC#CCC(CCC)C(=O)O (stereo not shown) [2-propyl-4-hexynoic acid]
- Antiepileptic effect and duration of activity [2]: effective antiepileptic with a longer duration of activity

SMILES: CC#CC[C@@H](CCC)C(=O)O [(2R)-2-propyl-4-hexynoic acid, reference compound]
- Percentage of Mice Protected Against Electrical Shock Induced Seizures ([3]; dose 600 μmole/kg): 0%
- Percentage of Mice Protected Against Electrical Shock Induced Seizures ([3]; dose 1200 μmole/kg): 0%
- Percentage of Mice Protected Against Electrical Shock Induced Seizures ([3]; dose 1800 μmole/kg): 0%
- Percentage of Mice Protected Against Electrical Shock Induced Seizures ([3]; dose 2400 μmole/kg): 20%

SMILES: CC#CC[C@@H](CCC)C(=O)NCC(N)=O [Example 1, (2R)-N-(2-amino-2-oxoethyl)-2-propyl-4-hexynamide]
- Time to Seizure [4]: 675 s
- Number of Mice Protected [4]: 5
- Percentage of Mice Protected Against Electrical Shock Induced Seizures ([3]; dose 600 μmole/kg): 0%
- Percentage of Mice Protected Against Electrical Shock Induced Seizures ([3]; dose 1200 μmole/kg): 70%
- Percentage of Mice Protected Against Electrical Shock Induced Seizures ([3]; dose 1800 μmole/kg): 90%
- Percentage of Mice Protected Against Electrical Shock Induced Seizures ([3]; dose 2400 μmole/kg): 100%

SMILES: CC#CC[C@@H](CCC)C(=O)N[C@H](C(N)=O)C(C)C [Example 2, (2R)-N-[(1S)-1-(aminocarbonyl)-2-methylpropyl]-2-propyl-4-hexynamide]
- Time to Seizure [4]: 305 s
- Number of Mice Protected [4]: 1

SMILES: CC#CC[C@@H](CCC)C(=O)N[C@@H](CC(C)C)C(N)=O [Example 3, (2R)-N-[(1S)-1-(aminocarbonyl)-3-methylbutyl]-2-propyl-4-hexynamide]
- Time to Seizure [4]: 575 s
- Number of Mice Protected [4]: 4

SMILES: CC#CC[C@@H](CCC)C(=O)N[C@@H](C)C(N)=O [Example 4, (2R)-N-[(1S)-2-amino-1-methyl-2-oxoethyl]-2-propyl-4-hexynamide]
- Time to Seizure [4]: 610 s
- Number of Mice Protected [4]: 6

SMILES: CC#CC[C@@H](CCC)C(=O)N[C@H](C)C(N)=O [Example 5, (2R)-N-[(1R)-2-amino-1-methyl-2-oxoethyl]-2-propyl-4-hexynamide]
- Time to Seizure [4]: 525 s
- Number of Mice Protected [4]: 2

SMILES: CC#CC[C@@H](CCC)C(N)=O [Example 6, (2R)-2-propyl-4-hexynamide]
- Time to Seizure [4]: No Seizures
- Number of Mice Protected [4]: 10
- Percentage of Mice Protected Against Electrical Shock Induced Seizures ([3]; dose 600 μmole/kg): 0%
- Percentage of Mice Protected Against Electrical Shock Induced Seizures ([3]; dose 1200 μmole/kg): 20%
- Percentage of Mice Protected Against Electrical Shock Induced Seizures ([3]; dose 1800 μmole/kg): 90%
